Assay results as given in patent US20130217085A1, “METHODS FOR IMPROVING FERMENTATION YIELD OF POLYUNSATURATED FATTY ACIDS” (NANJING UNIVERSITY OF TECHNOLOGY, priority 2010, published 2013).

Test system: Schizochytrium limacinum HX-308
Assay: Shake-flask fermentation of Schizochytrium limacinum HX-308 with exogenous compatible solute added to the fermentation medium (fatty acid composition, DHA yield, biomass)
Type: cell-based
Excerpt: The detection method of the following Examples is the same as that in the application titled “Schizochytrium limacinum and method of production of DHA oil using the same” (Application No. 200910033869.5) The strain is Schizochytrium limacinum HX-308 with deposit number CCTCC No. M209059. Seed medium: D-glucose 40 g/L, yeast extract 2 g/L, sodium glutamate 10 g/L, MgCl2 3 g/L, CaCl2·2H2O 1 g/L, KH2PO4 4 g/L, KCl 2 g/L, NaCl 15 g/L, MgSO4·7H2O 5 g/L, FeCl3 0.1 g/L. (See “A Schizochytrium limacinum and method of production of DHA oil using the same” (Application No. 200910033869.5)). Fermentation medium: D-glucose 40 g/L, yeast extract 2 g/L, sodium glutamate 10 g/L, MgCl2 3 g/L, (NH4)2SO4 6 g/L, KH2PO4 4 g/L, KCl 2 g/L, NaCl 15 g/L, MgSO4·7H2O 5 g/L, FeCl3 0.1 g/L. (See “A Schizochytrium limacinum and method of production of DHA oil using the same” (Application No. 200910033869.5)). Cultural method: strain was inoculated into seed medium with inoculation amount of 5% (v/v), cultured in a 500 mL shake flask for 24 h to log phase under 170 r at 25° C., and inoculated into the fermentation medium with addition of a certain amount of glycine betaine (such as 10 mmol/L, 40 mmol/L, 70 mmol/L, 100 mmol/L) in inoculation amount of 9% (v/v) for culturing; fermentation ceased when glucose reached an amount of 0 g/L. The results are shown in Table 1. The strain is Schizochytrium limacinum HX-308 with deposit number CCTCC No. M209059. Seed medium: D-glucose 40 g/L, yeast extract 2 g/L, sodium glutamate 10 g/L, MgCl2 3 g/L, CaCl2·2H2O 1 g/L, KH2PO4 4 g/L, KCl 2 g/L, NaCl 15 g/L, MgSO4·7H2O 5 g/L, FeCl3 0.1 g/L. Fermentation medium: D-glucose 40 g/L, yeast extract 2 g/L, sodium glutamate 10 g/L, MgCl2 3 g/L, (NH4)2SO4 6 g/L, KH2PO4 4 g/L, KCl 2 g/L, NaCl 15 g/L, MgSO4·7H2O 5 g/L, FeCl3 0.1 g/L. Cultural method: the strain was inoculated into seed medium with inoculation amount of 5% (v/v), cultured in a 500 mL shake flask for 24 h to log phase under 170 r at 25° C., and inoculated into the fermentation medium with addition of a certain amount of trehalose (such as 10 mmol/L, 40 mmol/L, 80 mmol/L) in inoculation amount of 9% (v/v); fermentation ceased when glucose reached an amount of 0 g/L. The results are shown in Table 2.

[1] = exogenous glycine betaine 10 mM
[2] = exogenous glycine betaine 40 mM
[3] = exogenous glycine betaine 70 mM
[4] = exogenous glycine betaine 100 mM
[5] = exogenous glycine betaine 200 mM

For `C[N+](C)(C)CC(=O)[O-]` [glycine betaine], the “mass percentage of squalene” value (after treatment with exogenous glycine betaine, concentration not given, increased from 0.8%) was 1.7%, the DHA yield (after treatment with exogenous glycine betaine, concentration not given, increased from 3.9 g/L) was 5.0 g/L and the “Total fatty acid yield” value (after treatment with exogenous glycine betaine, concentration not given, increased from 8.8 g/L) was 10 g/L. For the same molecule, the “mass percentage of DPA in total fatty acids” value (after treatment with exogenous glycine betaine, concentration not given, increased from 11.9%) was 16.2%, the “mass percentage of DHA in total fatty acids” value (after treatment with exogenous glycine betaine, concentration not given, increased from 44.1%) was 49.8% and the “ratio of DHA in the total biomass” value (after treatment with exogenous glycine betaine, concentration not given, increased from 57) was 72 mg/g. For the same molecule, the “mass percentage of saturated fatty acid C14: 0 in total fatty acid” value (after treatment with exogenous glycine betaine, concentration not given, reduced from 10.0%) was 5.1%, the “mass percentage of saturated fatty acid C16: 0 in total fatty acid” value (after treatment with exogenous glycine betaine, concentration not given, reduced from 24.4%) was 20% and the “increase of DHA yield” value (after treatment with exogenous glycine betaine, versus no addition) was 28%. The “ARA (% total fatty acids)” value [1] was 0.5 % total fatty acids, the Biomass [1] was 69 g/L and the “C14:0 (% total fatty acids)” value [1] was 7.1 % total fatty acids. For the same molecule, the “C16:0 (% total fatty acids)” value [1] was 21.5 % total fatty acids, the “DHA (% total fatty acids)” value [1] was 47.8 % total fatty acids and the “DHA (mg/g biomass)” value [1] was 60.5 mg/g biomass. For the same molecule, the DHA yield [1] was 4.2 g/L, the “DPA (% total fatty acids)” value [1] was 14.5 % total fatty acids and the “EPA (% total fatty acids)” value [1] was 1.2 % total fatty acids. The “Others (% total fatty acids)” value [1] was 6.2 % total fatty acids, the “Squalene (% total fatty acids)” value [1] was 1.2 % total fatty acids and the “Total fatty acid yield” value [1] was 8.8 g/L. The “ARA (% total fatty acids)” value [2] was 0.6 % total fatty acids, the Biomass [2] was 69 g/L and the “C14:0 (% total fatty acids)” value [2] was 5.1 % total fatty acids. For the same molecule, the “C16:0 (% total fatty acids)” value [2] was 19.9 % total fatty acids, the “DHA (% total fatty acids)” value [2] was 49.8 % total fatty acids and the “DHA (mg/g biomass)” value [2] was 72.2 mg/g biomass. The DHA yield [2] was 5 g/L, the “DPA (% total fatty acids)” value [2] was 16.2 % total fatty acids and the “EPA (% total fatty acids)” value [2] was 1.6 % total fatty acids. The “Others (% total fatty acids)” value [2] was 5.1 % total fatty acids, the “Squalene (% total fatty acids)” value [2] was 1.7 % total fatty acids and the “Total fatty acid yield” value [2] was 10 g/L. For the same molecule, the “ARA (% total fatty acids)” value [3] was 0.8 % total fatty acids, the Biomass [3] was 70 g/L and the “C14:0 (% total fatty acids)” value [3] was 5.1 % total fatty acids. For the same molecule, the “C16:0 (% total fatty acids)” value [3] was 19.5 % total fatty acids, the “DHA (% total fatty acids)” value [3] was 49.0 % total fatty acids and the “DHA (mg/g biomass)” value [3] was 67.1 mg/g biomass. For the same molecule, the DHA yield [3] was 4.7 g/L, the “DPA (% total fatty acids)” value [3] was 16.0 % total fatty acids and the “EPA (% total fatty acids)” value [3] was 2.0 % total fatty acids. For the same molecule, the “Others (% total fatty acids)” value [3] was 5.6 % total fatty acids, the “Squalene (% total fatty acids)” value [3] was 2.0 % total fatty acids and the “Total fatty acid yield” value [3] was 9.6 g/L. For the same molecule, the “ARA (% total fatty acids)” value [4] was 0.9 % total fatty acids, the Biomass [4] was 70 g/L and the “C14:0 (% total fatty acids)” value [4] was 5.2 % total fatty acids. The “C16:0 (% total fatty acids)” value [4] was 19.0 % total fatty acids, the “DHA (% total fatty acids)” value [4] was 48.1 % total fatty acids and the “DHA (mg/g biomass)” value [4] was 61.14 mg/g biomass. The DHA yield [4] was 4.3 g/L, the “DPA (% total fatty acids)” value [4] was 15.8 % total fatty acids and the “EPA (% total fatty acids)” value [4] was 2.6 % total fatty acids. The “Others (% total fatty acids)” value [4] was 6.1 % total fatty acids, the “Squalene (% total fatty acids)” value [4] was 2.3 % total fatty acids and the “Total fatty acid yield” value [4] was 8.9 g/L. The Biomass [5] was 85 g/L, the “C14:0 (% total fatty acids)” value [5] was 2.3 % total fatty acids and the “C16:0 (% total fatty acids)” value [5] was 10.9 % total fatty acids. For the same molecule, the “DHA (% total fatty acids)” value [5] was 34.9 % total fatty acids, the “DHA (mg/g biomass)” value [5] was 27 mg/g biomass and the DHA yield [5] was 2.3 g/L. For the same molecule, the “DPA (% total fatty acids)” value [5] was 10.5 % total fatty acids, the “EPA (% total fatty acids)” value [5] was 8.6 % total fatty acids and the “Others (% total fatty acids)” value [5] was 30.9 % total fatty acids. The “Squalene (% total fatty acids)” value [5] was 1.9 % total fatty acids and the “Total fatty acid yield” value [5] was 6.6 g/L.
